Data reported in patent publication US20260297109A1, “COMPOUNDS AS SUMO ACTIVATING ENZYME INHIBITORS” (WIGEN BIOMEDICINE TECHNOLOGY (SHANGHAI) CO., LTD., priority 2022, published 2026).

Each compound was assayed against T1, SAE (Homo sapiens, UniProt Q9UBT2) (assay: SUMO IF: in vitro inhibitory activity assay against SAE in HCT116 cells (SUMO-2/3 immunofluorescence)). Conditions: class symbols, 6 h at 37° C.
T1 construct: endogenous in cells; host or cells: HCT116
T1 sequence (Q9UBT2 1-640): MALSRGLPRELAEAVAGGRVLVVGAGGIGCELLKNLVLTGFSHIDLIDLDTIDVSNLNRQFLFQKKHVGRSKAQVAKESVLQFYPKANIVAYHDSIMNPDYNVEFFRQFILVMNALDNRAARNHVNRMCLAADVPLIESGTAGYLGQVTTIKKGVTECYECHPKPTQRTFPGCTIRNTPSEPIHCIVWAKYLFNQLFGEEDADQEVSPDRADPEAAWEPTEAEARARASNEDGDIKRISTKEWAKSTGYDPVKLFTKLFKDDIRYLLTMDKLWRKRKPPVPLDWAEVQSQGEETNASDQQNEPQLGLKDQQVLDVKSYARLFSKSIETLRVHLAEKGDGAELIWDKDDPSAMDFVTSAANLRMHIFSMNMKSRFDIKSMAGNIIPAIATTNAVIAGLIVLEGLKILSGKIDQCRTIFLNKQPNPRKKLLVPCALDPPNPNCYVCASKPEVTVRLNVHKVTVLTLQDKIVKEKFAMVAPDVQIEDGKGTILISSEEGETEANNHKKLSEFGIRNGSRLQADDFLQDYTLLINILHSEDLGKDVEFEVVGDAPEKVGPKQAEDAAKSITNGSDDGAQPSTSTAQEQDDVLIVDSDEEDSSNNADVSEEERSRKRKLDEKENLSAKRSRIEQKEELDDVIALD
T1 sequence (Q9UBE0 1-346): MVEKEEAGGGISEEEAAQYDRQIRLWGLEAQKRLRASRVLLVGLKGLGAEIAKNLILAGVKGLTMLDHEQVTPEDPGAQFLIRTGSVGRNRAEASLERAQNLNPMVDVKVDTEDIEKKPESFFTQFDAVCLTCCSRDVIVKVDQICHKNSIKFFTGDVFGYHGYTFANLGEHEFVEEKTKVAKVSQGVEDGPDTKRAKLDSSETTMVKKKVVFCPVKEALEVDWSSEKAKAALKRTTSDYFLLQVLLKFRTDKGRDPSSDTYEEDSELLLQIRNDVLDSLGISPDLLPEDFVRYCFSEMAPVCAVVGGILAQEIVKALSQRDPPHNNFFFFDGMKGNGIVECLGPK
Assay type: cell-based
Experimental: Biological Example 1. In Vitro Inhibitory Activity Assay of Compounds of the Present Disclosure Against SAE
HCT116 cells were seeded into a 96-well black transparent bottom plate at about 20000/well with 90 μL per well. The cells were incubated at 37° C. overnight for 24 h. The test compounds were 10-fold diluted to give a final concentration, and 10 μL of the diluted compounds was added to each well of the cell culture plate. The mixture was incubated at 37° C. for 6 h. The cells were then washed gently, the culture medium was discarded, and the cells were washed once with 200 μL of 0.1% PBST. 50 μL of 4% PFA was added to each well, and the cells were immobilized at room temperature for 20 min, and then washed with PBS 2-3 times. 50 μL of 0.2% Triton X-100 was added to each well, and the cells were left to stand at room temperature for 15 min and washed with 0.1% PBST 3 times. 100 μL of 3% BSA (0.6 g BSA+20 mL PBS) was added to each well, and the mixture was blocked at 37° C. for 30 min. After the blocking was completed, the liquid was removed and a primary antibody (SUMO-2/3 (18H8) Rabbit mAb, 1:400 dilution) was prepared with 1% BSA. 30 μL of the diluted primary antibody was added to each well, and the mixture was incubated at 4° C. overnight. The cells were washed 3 times with 200 μL of 0.1% PBST. A FITC secondary antibody (Fluorescein (FITC)-conjugated Affinipure Goat Anti-Rabbit IgG (H+L), 1:300 dilution) was further prepared with 1% BSA, and 40 μL of the diluted secondary antibody was added to each well. The mixture was incubated at room temperature in the dark for 2 h, and then the cells were washed 4 times with 0.1% PBST. The fluorescence signal of the sample was detected and compared to the DMSO group, and the inhibition rate and IC50 were calculated.
Compound NS(=O)(=O)OC[C@H]1[C@H](F)[C@@H](Nc2ncncc2C(=O)c2cc3c(s2)CCC32NCCc3ccc(Cl)cc32)C[C@@H]1O (stereo partly shown) [Compound 130] has an IC50 of 0.05 to 0.2 µM. For NS(=O)(=O)OC[C@H]1[C@H](F)[C@@H](Nc2ncncc2C(=O)c2cc3c(s2)CCC32NCCc3ccc(F)cc32)C[C@@H]1O (stereo partly shown) [Compound 133], the IC50 was 0.05 to 0.2 µM. N#Cc1ccc2c(c1)C1(CCc3sc(C(=O)c4cncnc4N[C@H]4C[C@H](O)[C@@H](COS(N)(=O)=O)[C@@H]4F)cc31)NCC2 (stereo partly shown) [Compound 136] was tested, and the IC50 was 0.05 to 0.2 µM. With N#Cc1ccc2c(c1)[C@]1(CCc3sc(C(=O)c4cncnc4N[C@H]4C[C@H](O)[C@@H](COS(N)(=O)=O)[C@@H]4F)cc31)NCC2 [Compound 137] the IC50 was over 0.2 µM. In the case of N#Cc1ccc2c(c1)[C@@]1(CCc3sc(C(=O)c4cncnc4N[C@H]4C[C@H](O)[C@@H](COS(N)(=O)=O)[C@@H]4F)cc31)NCC2 [Compound 138], the IC50 is reported as 0.05 to 0.2 µM. In the case of NS(=O)(=O)OC[C@H]1[C@H](F)[C@@H](Nc2ncncc2C(=O)c2cc3c(s2)OCC32NCCc3ccccc32)C[C@@H]1O (stereo partly shown) [Compound 139], the IC50 is reported as over 0.2 µM. Work on NS(=O)(=O)OC[C@H]1[C@H](F)[C@@H](Nc2ncncc2C(=O)c2cc3c(s2)OC[C@@]32NCCc3ccccc32)C[C@@H]1O [Compound 140] yielded an IC50 of over 0.2 µM. Work on NS(=O)(=O)OC[C@H]1[C@H](F)[C@@H](Nc2ncncc2C(=O)c2cc3c(s2)OC[C@]32NCCc3ccccc32)C[C@@H]1O [Compound 141] yielded an IC50 of 0.05 to 0.2 µM. NS(=O)(=O)OC[C@H]1[C@H](F)[C@@H](Nc2ncncc2C(=O)c2cc3c(s2)OCC32NCCc3ccc(F)cc32)C[C@@H]1O (stereo partly shown) [Compound 142] showed an IC50 of over 0.2 µM. For NS(=O)(=O)OC[C@H]1[C@H](F)[C@@H](Nc2ncncc2C(=O)c2cc3c(s2)OC[C@@]32NCCc3ccc(F)cc32)C[C@@H]1O [Compound 143], the IC50 was over 0.2 µM. Compound NS(=O)(=O)OC[C@H]1[C@H](F)[C@@H](Nc2ncncc2C(=O)c2cc3c(s2)OC[C@]32NCCc3ccc(F)cc32)C[C@@H]1O [Compound 144] has an IC50 of 0.05 to 0.2 µM. In the case of NS(=O)(=O)OC[C@H]1[C@H](F)[C@@H](Nc2ncncc2C(=O)c2cc3c(s2)OCC32NCCc3ccc(Cl)cc32)C[C@@H]1O (stereo partly shown) [Compound 145], the IC50 is reported as 0.05 to 0.2 µM. NS(=O)(=O)OC[C@H]1[C@H](F)[C@@H](Nc2ncncc2C(=O)c2cc3c(s2)OC[C@@]32NCCc3ccc(Cl)cc32)C[C@@H]1O [Compound 146] gave an IC50 of over 0.2 µM. For NS(=O)(=O)OC[C@H]1[C@H](F)[C@@H](Nc2ncncc2C(=O)c2cc3c(s2)OC[C@]32NCCc3ccc(Cl)cc32)C[C@@H]1O [Compound 147], the IC50 was 0.05 to 0.2 µM. Cc1ccc2c(c1)C1(CCc3sc(C(=O)c4cncnc4N[C@H]4C[C@H](O)[C@@H](COS(N)(=O)=O)[C@@H]4F)cc31)NCC2 (stereo partly shown) [Compound 148] showed an IC50 of 0.05 to 0.2 µM. With NS(=O)(=O)OC[C@H]1[C@H](F)[C@@H](Nc2ncncc2C(=O)c2cc3c(s2)CCC32NCCc3ccc(C4CC4)cc32)C[C@@H]1O (stereo partly shown) [Compound 149] the IC50 was 0.05 to 0.2 µM. In the case of COc1ccc2c(c1)C1(CCc3sc(C(=O)c4cncnc4N[C@H]4C[C@H](O)[C@@H](COS(N)(=O)=O)[C@@H]4F)cc31)NCC2 (stereo partly shown) [Compound 150], the IC50 is reported as over 0.2 µM. NS(=O)(=O)OC[C@H]1[C@H](F)[C@@H](Nc2ncncc2C(=O)c2cc3c(s2)CCC32NCCc3ccc(C(F)(F)F)cc32)C[C@@H]1O (stereo partly shown) [Compound 151] was tested, and the IC50 was 0.05 to 0.2 µM. Work on NS(=O)(=O)OC[C@H]1[C@H](F)[C@@H](Nc2ncncc2C(=O)c2cc3c(s2)CCC32NCCc3cc(F)c(F)cc32)C[C@@H]1O (stereo partly shown) [Compound 152] yielded an IC50 of 0.05 to 0.2 µM. Work on NS(=O)(=O)OC[C@H]1[C@H](F)[C@@H](Nc2ncncc2C(=O)c2cc3c(s2)CCC32NCCc3cc(F)c(Cl)cc32)C[C@@H]1O (stereo partly shown) [Compound 153] yielded an IC50 of at most 0.05 µM. NS(=O)(=O)OC[C@H]1[C@H](F)[C@@H](Nc2ncncc2C(=O)c2cc3c(s2)CCC32NCCc3cc(Cl)c(Cl)cc32)C[C@@H]1O (stereo partly shown) [Compound 154] was tested, and the IC50 was 0.05 to 0.2 µM. Cc1cc2c(cc1Cl)C1(CCc3sc(C(=O)c4cncnc4N[C@H]4C[C@H](O)[C@@H](COS(N)(=O)=O)[C@@H]4F)cc31)NCC2 (stereo partly shown) [Compound 155] gave an IC50 of 0.05 to 0.2 µM. Compound N#Cc1cc2c(cc1Cl)C1(CCc3sc(C(=O)c4cncnc4N[C@H]4C[C@H](O)[C@@H](COS(N)(=O)=O)[C@@H]4F)cc31)NCC2 (stereo partly shown) [Compound 156] has an IC50 of 0.05 to 0.2 µM. In the case of COc1cc2c(cc1Cl)C1(CCc3sc(C(=O)c4cncnc4N[C@H]4C[C@H](O)[C@@H](COS(N)(=O)=O)[C@@H]4F)cc31)NCC2 (stereo partly shown) [Compound 157], the IC50 is reported as 0.05 to 0.2 µM. In the case of NS(=O)(=O)OC[C@H]1[C@H](F)[C@@H](Nc2ncncc2C(=O)c2cc3c(s2)CCC32NCCc3cc(F)c(Cl)c(F)c32)C[C@@H]1O (stereo partly shown) [Compound 158], the IC50 is reported as 0.05 to 0.2 µM. With NS(=O)(=O)OC[C@H]1[C@H](F)[C@@H](Nc2ncncc2C(=O)c2cc3c(s2)CCC32NCCc3cc(Cl)c(F)cc32)C[C@@H]1O (stereo partly shown) [Compound 159] the IC50 was 0.05 to 0.2 µM. NS(=O)(=O)OC[C@H]1[C@H](F)[C@@H](Nc2ncncc2C(=O)c2cc3c(s2)CCC32NCCc3ccncc32)C[C@@H]1O (stereo partly shown) [Compound 160] showed an IC50 of 0.05 to 0.2 µM. NS(=O)(=O)OC[C@H]1[C@H](F)[C@@H](Nc2ncncc2C(=O)c2cc3c(s2)CCC32NCCc3cc(Cl)ncc32)C[C@@H]1O (stereo partly shown) [Compound 161] showed an IC50 of 0.05 to 0.2 µM. NS(=O)(=O)OC[C@H]1[C@H](F)[C@@H](Nc2ncncc2C(=O)c2cc3c(s2)C=CC32NCCc3ccc(Cl)cc32)C[C@@H]1O (stereo partly shown) [Compound 162] showed an IC50 of at most 0.05 µM. For NS(=O)(=O)OC[C@H]1[C@H](F)[C@@H](Nc2ncncc2C(=O)c2cc3c(s2)C=CC32NCCc3ccc(F)cc32)C[C@@H]1O (stereo partly shown) [Compound 163], the IC50 was 0.05 to 0.2 µM. NS(=O)(=O)OC[C@H]1[C@H](F)[C@@H](Nc2ncncc2C(=O)c2cc3c(s2)COC32NCCc3ccc(Cl)cc32)C[C@@H]1O (stereo partly shown) [Compound 164] showed an IC50 of 0.05 to 0.2 µM. Compound NS(=O)(=O)OC[C@H]1[C@H](F)[C@@H](Nc2ncncc2C(=O)c2cc3c(s2)CCC32NCC3(CC3)c3ccc(Cl)cc32)C[C@@H]1O (stereo partly shown) [Compound 165] has an IC50 of 0.05 to 0.2 µM. In the case of NS(=O)(=O)OC[C@H]1[C@H](F)[C@@H](Nc2ncncc2C(=O)c2cc3c(s2)CCC32NC3(CC3)Cc3ccc(Cl)cc32)C[C@@H]1O (stereo partly shown) [Compound 166], the IC50 is reported as 0.05 to 0.2 µM. For NS(=O)(=O)OC[C@H]1[C@H](F)[C@@H](Nc2ncncc2C(=O)c2cc3c(s2)CCC32NCC(=O)c3ccc(Cl)cc32)C[C@@H]1O (stereo partly shown) [Compound 167], the IC50 was 0.05 to 0.2 µM. Work on NS(=O)(=O)OC[C@H]1[C@H](F)[C@@H](Nc2ncncc2C(=O)c2cc3c(s2)CCC32OCCc3ccc(Cl)cc32)C[C@@H]1O (stereo partly shown) [Compound 168] yielded an IC50 of at most 0.05 µM.

Same assay, conditions: numeric values, 6 h at 37° C.
For NS(=O)(=O)OC[C@H]1[C@H](F)[C@@H](Nc2ncncc2C(=O)c2cc3c(s2)CC[C@@]32NCCc3ccccc32)C[C@@H]1O [Compound 128], the IC50 was over 1 µM. With NS(=O)(=O)OC[C@H]1[C@H](F)[C@@H](Nc2ncncc2C(=O)c2cc3c(s2)CC[C@]32NCCc3ccccc32)C[C@@H]1O [Compound 129] the IC50 was 0.121 µM. For NS(=O)(=O)OC[C@H]1[C@H](F)[C@@H](Nc2ncncc2C(=O)c2cc3c(s2)CC[C@@]32NCCc3ccc(Cl)cc32)C[C@@H]1O [Compound 131], the IC50 was over 1 µM. For NS(=O)(=O)OC[C@H]1[C@H](F)[C@@H](Nc2ncncc2C(=O)c2cc3c(s2)CC[C@@]32NCCc3ccc(F)cc32)C[C@@H]1O [Compound 134], the IC50 was over 1 µM. With NS(=O)(=O)OC[C@H]1[C@H](F)[C@@H](Nc2ncncc2C(=O)c2cc3c(s2)CC[C@]32NCCc3ccc(F)cc32)C[C@@H]1O [Compound 135] the IC50 was 0.0489 µM.
